# From patent publication US7648973B2, “2-methylene-1α,25-dihydroxy-19,21-dinorvitamin D3 analogs and uses thereof” (Wisconsin Alumni Research Foundation, priority 2006, dated 2010)
# Entries after “also recorded” stand apart in the source; their conditions may differ.
# Experiments:
# [1] = Bone calcium mobilization (serum calcium); format: in vivo, rat; details: at equimolar quantities or even at 27 times the dose of 1α,25-dihydroxyvitamin D3; ip, 4 consecutive days; FIG. 2
# Procedure: (§1) Male, weanling Sprague-Dawley rats were placed on Diet 11 (0.47% Ca) diet+AEK for one week followed by Diet 11 (0.02% Ca)+AEK for 3 weeks. The rats were then switched to a diet containing 0.47% Ca for one week followed by two weeks on a diet containing 0.02% Ca. Dose administration began during the last week on 0.02% calcium diet. Four consecutive ip doses were given approximately 24 hours apart. Twenty-four hours after the last dose, blood was collected from the severed neck and the concentration of serum calcium determined as a measure of bone calcium mobilization. The first 10 cm of the intestine was also collected for intestinal calcium transport analysis using the everted gut sac method. The everted gut sac assay was carried out as previously described by Martin and Deluca, Am. J. Physiol. 216, 1351 (1969); (DeLuca et al., U.S. Pat. No. 4,188,345), which are incorporated by reference as if fully set forth herein. Serum calcium was determined by atomic absorption spectrophotometry using a Perkin Elmer Model 3110 and by diluting the serum in 0.1% lanthanum chloride.
# (§2) The negative control material is prepared by volumetrically measuring ethanol (<5%) and propylene glycol, mixing, and then placing in storage at 2 to 8° C.
# (§3) The solution is mixed and then stored at 2 to 8° C. […]
# HL-60 cells = experiment: HL-60 differentiation (nitro blue tetrazolium reduction); format: cell-based, human; details: compared with 1α,25-dihydroxyvitamin D3; FIG. 4
# Procedure: The study drugs were dissolved in ethanol and the concentrations determined using UV spectrophotometry. Serial dilutions were prepared so that a range of drug concentrations could be tested without changing the final concentration of ethanol (<0.2%) present in the cell cultures.
# Human promyelocytic leukemia (HL60) cells were grown in RPMI-1640 medium containing 10% fetal bovine serum. The cells were incubated at 37° C. in the presence of 5% CO2.
# HL60 cells were plated at 1.2×10^5 cells/ml. Eighteen hours after plating, cells in duplicate were treated with drug. Four days later, the cells were harvested and a nitro blue tetrazolium reduction assay was performed (Collins et al., 1979; J. Exp. Med. 149:969-974). The percentage of differentiated cells was determined by counting a total of 200 cells and recording the number that contained intracellular black-blue formazan deposits. Verification of differentiation to monocytic cells was determined by measuring phagocytic activity (data not shown).
# [2] = Intestinal calcium transport (everted gut sac); format: in vivo, rat; details: compared with 1α,25-dihydroxyvitamin D3; ip, 4 consecutive days; FIG. 3
# Procedure: as §1, §2, §3
# [3] = biological target: T1, full-length recombinant rat vitamin D receptor (Rattus norvegicus, UniProt P13053); experiment: Vitamin D receptor binding, competition with [3H]-1,25-(OH)2-D3; details: compared with 1α,25-dihydroxyvitamin D3; FIG. 1
# T1 construct: Full-length recombinant rat receptor was expressed in E. coli BL21(DE3) Codon Plus RIL cells; histidine tag (C); made in house; host or cells: E. coli BL21(DE3) Codon Plus RIL
# T1 sequence (P13053 1-423): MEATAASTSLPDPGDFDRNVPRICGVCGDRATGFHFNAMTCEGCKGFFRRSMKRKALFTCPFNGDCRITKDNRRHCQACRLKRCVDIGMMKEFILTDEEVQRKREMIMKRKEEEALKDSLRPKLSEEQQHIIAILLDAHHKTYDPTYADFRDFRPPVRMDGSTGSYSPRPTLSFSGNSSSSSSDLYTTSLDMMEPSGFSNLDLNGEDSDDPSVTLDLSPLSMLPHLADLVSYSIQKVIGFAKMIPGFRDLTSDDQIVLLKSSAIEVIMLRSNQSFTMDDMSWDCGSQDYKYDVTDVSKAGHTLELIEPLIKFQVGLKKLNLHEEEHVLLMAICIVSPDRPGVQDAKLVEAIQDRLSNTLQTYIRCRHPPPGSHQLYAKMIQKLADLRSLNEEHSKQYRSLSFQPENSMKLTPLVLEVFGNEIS
# Procedure: The first system was a nickel affinity resin that utilizes the C-terminal histidine tag on this protein. The protein that was eluted from this resin was further purified using ion exchange chromatography (S-Sepharose Fast Flow). Aliquots of the purified protein were quick frozen in liquid nitrogen and stored at −80° C. until use. For use in binding assays, the protein was diluted in TEDK50 (50 mM Tris, 1.5 mM EDTA, pH 7.4, 5 mM DTT, 150 mM KCl) with 0.1% Chaps detergent. The receptor protein and ligand concentration was optimized such that no more than 20% of the added radiolabeled ligand was bound to the receptor.
# The following day, 100 mcl of hydroxylapatite slurry (50%) was added to each tube and mixed at 10-minute intervals for 30 minutes. The hydroxylapaptite was collected by centrifugation and then washed three times with Tris-EDTA buffer (50 mM Tris, 1.5 mM EDTA, pH 7.4) containing 0.5% Titron X-100. After the final wash, the pellets were transferred to scintillation vials containing 4 ml of Biosafe II scintillation cocktail, mixed and placed in a scintillation counter. Total binding was determined from the tubes containing only radiolabeled ligand.
# [4] = system: 24-hydyroxylase (24Ohase) gene promoter in ROS 17/2.8 (bone) cells; experiment: In vitro transcription assay (luciferase reporter); format: cell-based; details: compared with 1α,25-dihydroxyvitamin D3; FIG. 5
# Procedure: Transcription activity was measured in ROS 17/2.8 (bone) cells that were stably transfected with a 24-hydyroxylase (24Ohase) gene promoter upstream of a luciferase reporter gene (Arbour et al., 1998). Cells were given a range of doses. Sixteen hours after dosing the cells were harvested and luciferase activities were measured using a luminometer. (RLU=relative luciferase units)
compound,measurement,setting,value
"C=C1[C@H](O)CC(=C/C=C2\CCC[C@]3(C)[C@@H](CCCCC(C)(C)O)CC[C@@H]23)C[C@H]1O [TP-62, 2-methylene-1α,25-dihydroxy-19,21-dinorvitamin D3]",bone calcium mobilization,[1],"lesser activity than 1α,25-dihydroxyvitamin D3; also recorded: lesser ability to mobilize calcium from bone"
same,differentiation of HL-60 cells,HL-60 cells,"more active than 1α,25-dihydroxyvitamin D3"
same,intestinal calcium transport activity,[2],"greater or at least equal to 1α,25-dihydroxyvitamin D3"
same,binding to the recombinant vitamin D receptor,[3],"comparably active when compared to 1α,25-dihydroxyvitamin D3; also recorded: relatively high binding"
same,stimulating transcription of a reporter gene stably transfected in Ros17/2.8 (bone) cells,[4],"equally active as 1α,25-dihydroxyvitamin D3"
